Molecular target: T1, CcoI (Rhodobacter capsulatus, UniProt D5ARQ0)
T1 construct: full-length with C-terminal Myc-His tag (pBAD-ccoI-Myc/HisA), expressed in E. coli C43(DE3), purified in DDM, monomeric SEC peak; strain MT1131 is printed as wild type and as genomic template of the ccoI-senC fusion
T1 sequence (D5ARQ0 1-742): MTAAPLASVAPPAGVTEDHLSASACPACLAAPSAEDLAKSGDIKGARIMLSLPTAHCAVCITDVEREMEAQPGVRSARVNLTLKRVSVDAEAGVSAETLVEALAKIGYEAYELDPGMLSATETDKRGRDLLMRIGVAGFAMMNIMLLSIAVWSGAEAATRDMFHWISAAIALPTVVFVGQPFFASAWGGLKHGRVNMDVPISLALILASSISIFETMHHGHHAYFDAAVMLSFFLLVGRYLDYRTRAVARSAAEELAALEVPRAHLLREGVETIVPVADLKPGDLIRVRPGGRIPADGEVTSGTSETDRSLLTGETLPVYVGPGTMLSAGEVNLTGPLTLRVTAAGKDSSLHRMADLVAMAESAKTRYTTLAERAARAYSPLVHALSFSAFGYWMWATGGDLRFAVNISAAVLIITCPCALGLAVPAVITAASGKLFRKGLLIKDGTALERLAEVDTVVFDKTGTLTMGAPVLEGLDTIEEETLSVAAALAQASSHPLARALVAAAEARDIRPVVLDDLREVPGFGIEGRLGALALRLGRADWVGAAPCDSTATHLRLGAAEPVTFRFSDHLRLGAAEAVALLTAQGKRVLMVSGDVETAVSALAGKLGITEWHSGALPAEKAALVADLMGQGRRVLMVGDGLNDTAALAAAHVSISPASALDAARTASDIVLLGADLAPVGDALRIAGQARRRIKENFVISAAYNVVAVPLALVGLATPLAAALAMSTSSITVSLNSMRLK
Test: […] phosphate release (charcoal, scintillation)
Format: biochemical
Settings: labelled compound; 10-100 µM ATP, 10 mM MgCl2, 50 mM Tris pH 7.5, 300 mM NaCl, 0.03% DDM, 35 °C; no added Cu

With `Nc1ncnc2c1ncn2[C@@H]1O[C@H](COP(=O)(O)OP(=O)(O)OP(=O)(O)O)[C@@H](O)[C@H]1O` [ATP] the “33P phosphate release (charcoal, scintillation)” value was “ATPase activity of detergent-solubilized, purified CcoI”.

Reference: publication PMC8475189, “The CopA2-Type P1B-Type ATPase CcoI Serves as Central Hub for cbb3-Type Cytochrome Oxidase Biogenesis” (Frontiers in Microbiology, 2021)
